Legend:
[1] = test system: db/db mice; assay: Serum HDL and LDL/VLDL in db/db mice; assay type: in vivo; settings: vs db-Veh
Excerpt: Fasting blood glucose and serum lipid.

[2] = test system: db/db mice; assay: qPCR gene expression of gastrocnemius muscle and MyHC1 myofibre staining in db/db mice; assay type: in vivo
Procedure: Quantitative real-time PCR. Total RNA was isolated from GAS muscle using the Exiqon miRCURY RNA Isolation kit (Exiqon, Mass., USA) according to the manufacturer's protocol. Complimentary DNA from total RNA was synthesized with iScript cDNA synthesis kit (Bio-Rad Laboratories, CA, USA) and quantitative real-time PCR (qPCR) analysis was performed on key transcriptome targets using iTaq Universal SYBR Green Supermix (Bio-Rad Laboratories, CA, USA). The cDNA synthesis and qPCR procedures were performed as described previously. The mouse HPRT gene was used as an internal control.
Myofibre staining. The 10 μm thick transverse serial cryosections of TA muscles were cut at the mid-belly region using Microm cryostat ma-chine. Briefly, the tissue sections were blocked with 0.2% bovine serum albumin (BSA) and 10% normal sheep serum (NSS) in PBS-Triton X100 (PBST) for 1 h at RT. All washes were carried out with PBS. Following washing, the sections were incubated in 5 μg/mL of mouse monoclonal primary antibody against myosin heavy chain type-1 (A4.840s DSHB, IA, USA) in 0.2% BSA and 5% NSS antibody dilution buffer in PBST overnight at 4° C. After washing, the sections were then fixed with 10% neutral buffered formalin for 5 min at RT, washed and incubated in 1:300 dilution of biotinylated sheep anti-mouse IgG (ab6807, Abcam, Mass., USA) and 1:1000 dilution of rabbit anti-laminin (L9393, Sigma-Aldrich, MO, USA) in the antibody dilution buffer for 1 h at RT. Following washes, the tissue sections were then incubated in 1:400 dilution of streptavidin AF488 conjugate and goat anti-rabbit AF594 (Invitrogen, CA, USA) and then washed and mounted with Prolong gold anti-fade mounting medium with DAPI (Invitrogen, CA, USA). Images were obtained at ×10 and ×20 magnifications with the Olympus IX73 inverted microscope using CellSens Standard software (Olympus Soft Imaging Solution, USA) and the MyHC1 positive myofibres were quantified with ImageJ software.

[3] = test system: C57Bl/6J wildtype mice; assay: In vivo myocardial infarction (permanent LAD ligation); settings: single bolus 10 mg/kg i.p. 30 minutes prior to LAD occlusion; 24 hours; vs vehicle
Procedure: […]. All surgical procedures were carried out in aseptic conditions. A left thoracotomy incision was performed at the fourth intercostal space to expose the heart and ligating the LAD coronary artery with an 8-0 polypropylene suture to induce MI as described previously. Myocardial ischemia was confirmed with both the development of pallor myocardium distal to the ligation in the left ventricle and with the ST-segment elevation on the ECG. The skin and muscle incisions were closed with a 6-0 polypropylene suture, and the mice was administered a single dose long-acting analgesic Buprenorphine SR s.c. at 0.5-1.5 mg/kg body weight. The mice were monitored for any signs of pain or discomfort and its feeding and drinking behavior. After 24 hours of occlusion of the LAD coronary artery, the mice were euthanized as per the approved IACUC protocol, and the heart was excised for further processing with 2,3,5-Triphenyltetrazolium chloride (TTC) (Sigma-Aldrich, MO, USA). The whole heart was cut into six parallel short-axis sections and stained with 1% TTC for 90 minutes and fixed overnight in 10% neutral-buffered formalin (Sigma-Aldrich, MO, USA). The TTC stained heart sections were then scanned to determine the total infarct size as the ratio of the infarcted area, i.e., not stained with TTC to the ventricular area of the 4 sections from the apex to the site of occlusion (n=3 mice/group).

[4] = gastrocnemius muscle, vs db-Veh
[5] = gastrocnemius muscle, vs db-Veh and C57Bl/6J
[6] = gastrocnemius muscle, vs db-Veh and WT

Q: For `OC(CNc1ccccc1)Cn1c2ccc(Br)cc2c2cc(Br)ccc21` (centres unmarked) [P7C3, 3,6-Dibromo-a-[(phenylamino)methyl]-9H-carbazole-9-ethanol], which HDL lipoproteins level [1] is on record?
A: significant increase

Q: And the LDL/VLDL lipoproteins level [1]?
A: significant decrease

Q: What about the “TNFα expression in skeletal muscle” value ([2]; gastrocnemius muscle, db-Veh vs db-P7C3) of the same compound?
A: high levels in db-Veh compared with db-P7C3

Q: And the CD36 expression [2, 4]?
A: significantly down-regulated

Q: What about the Fabp1 expression [2, 4] of the same compound?
A: significantly down-regulated

Q: And the Fgf21 expression [2, 4]?
A: significant reduction

Q: And the “MyHC type 1 (MyHC1) expression levels” value [2, 4]?
A: significant de-crease

Q: What about the Cpt1 expression [2, 5] of the same compound?
A: significantly up-regulated

Q: What about the Pdk4 expression [2, 5] of the same compound?
A: significantly up-regulated

Q: What about the MyHC-2a expression levels [2, 6] of the same compound?
A: no significant change

Q: And the MyHC-2b expression levels [2, 6]?
A: no significant change

Q: And the “MyHC-2× expression levels” value [2, 6]?
A: no significant change

Q: What about the “number of MyHC1 positive myofibres” value ([2]; tibialis anterior immunostaining, vs db-Veh) of the same compound?
A: significant decrease

Q: What about the total infarct size [3] of the same compound?
A: significant reduction

— US20220370636A1, “NICOTINAMIDE ADENINE DINUCLEOTIDE ACTIVATOR AND USE THEREOF” (University of South Florida, priority 2021, published 2022)
